Results published in patent publication US6914045B2, “Glycopeptide antibiotics” (Wyeth Holdings Corporation, priority 2001, dated 2005).
Converted amounts (≈) assume the structure as drawn.

Tests used:
Assay in all cases: in vitro antibacterial evaluation, MIC by broth dilution
Assay type in all cases: cell-based
Escherichia coli = conditions: 18 hours at 35° C.
How it was run: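 MIC is the lowest antibiotic concentration (tested 64-0.06 μg/mL) preventing growth of a 5×10^5 CFU/mL inoculum. Determined by broth dilution in Mueller-Hinton II medium following NCCLS standard M7-A2.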

Streptococcus sp. = conditions: broth dilution, 18 hours at 35° C.
Procedure: (§1) Methods for in vitro Antibacterial Evaluation (Table 1)
(§2) The minimum inhibitory concentration (MIC), the lowest concentration of the antibiotic which inhibits growth of the test organism, is determined by the broth dilution method using Muller-Hinton II […] (Baltimore Biological Laboratories) following the recommendations of the National Committee for Clinical Laboratory Standards [Methods for dilution antimicrobial susceptibility tests for bacteria that grow aerobically, approved standard M7-A2, National Committee for Clinical Laboratory Standards, Villanova, Pa.].
(§3) An inoculum level of 5×10^5 CFU/mL, and a range of antibiotic concentrations (64-0.06 μg/mL) is used. […] The test organisms include a spectrum of Gram-positive bacteria comprised of Staphylococcus sp., Streptococcus sp. and Enterococcus sp. These organisms include recent clinical isolates that are resistant to methicillin, penicillin and/or vancomycin.

Enterococcus sp. = conditions: broth dilution, 18 hours at 35° C.
Procedure: as §1, §2, §3

Staphylococcus sp. = conditions: broth dilution, 18 hours at 35° C.
Procedure: as §1, §2, §3

- MIC Escherichia coli (ATCC 25922) (Escherichia coli): >64 µg/mL
- MIC Escherichia coli (GC 4559) (Escherichia coli): 64 µg/mL (≈ 42.3 µM)
- MIC Escherichia coli (GC 4560) (Escherichia coli): 4 µg/mL (≈ 2.65 µM)
- MIC Streptococcus agalactiae (GC 4564) (Streptococcus sp.): 1 µg/mL (≈ 0.662 µM)
- MIC Streptococcus pneumoniae (ATCC 6301) (Streptococcus sp.): 1 µg/mL (≈ 0.662 µM)
- MIC Streptococcus pneumoniae (GC 1894) (Streptococcus sp.): 0.12 µg/mL (≈ 0.0794 µM)
- MIC Streptococcus pneumoniae (GC 4565) (Streptococcus sp.): 1 µg/mL (≈ 0.662 µM)
- MIC Streptococcus pyogenes (GC 4563) (Streptococcus sp.): 0.5 µg/mL (≈ 0.331 µM)
- MIC Streptococcus pneumoniae (ATCC 6301) (Streptococcus sp.; strain ATCC 6301): 1 µg/mL (≈ 0.662 µM)
- MIC Streptococcus pneumoniae (GC 1894) (Streptococcus sp.; strain GC 1894): 0.12 µg/mL (≈ 0.0794 µM)
- MIC Streptococcus pyogenes (GC 4563) (Streptococcus sp.; strain GC 4563): 0.5 µg/mL (≈ 0.331 µM)
- MIC Streptococcus agalactiae (GC 4564) (Streptococcus sp.; strain GC 4564): 1 µg/mL (≈ 0.662 µM)
- MIC Streptococcus pneumoniae (GC 4565) (Streptococcus sp.; strain GC 4565): 1 µg/mL (≈ 0.662 µM)
- MIC Enterococcus avium (GC 4558) (Enterococcus sp.; Enterococcus avium (GC 4558)): 8 µg/mL (≈ 5.29 µM)
- MIC Enterococcus faecalis (ATCC 29212) (Enterococcus sp.; Enterococcus faecalis (ATCC 29212)): 8 µg/mL (≈ 5.29 µM)
- MIC Enterococcus faecalis (GC 4552) (Enterococcus sp.; Enterococcus faecalis (GC 4552)): 8 µg/mL (≈ 5.29 µM)
- MIC Enterococcus faecalis (GC 4553) (Enterococcus sp.; Enterococcus faecalis (GC 4553)): 8 µg/mL (≈ 5.29 µM)
- MIC Enterococcus faecalis (GC 4554) (Enterococcus sp.; Enterococcus faecalis (GC 4554)): 16 µg/mL (≈ 10.6 µM)
- MIC Enterococcus faecalis (GC 6189) (Enterococcus sp.; Enterococcus faecalis (GC 6189)): 8 µg/mL (≈ 5.29 µM)
- MIC Enterococcus faecium (GC 2243) (Enterococcus sp.; Enterococcus faecium (GC 2243)): 4 µg/mL (≈ 2.65 µM)
- MIC Enterococcus faecium (GC 4556) (Enterococcus sp.; Enterococcus faecium (GC 4556)): 8 µg/mL (≈ 5.29 µM)
- MIC Enterococcus faecium (GC 4557) (Enterococcus sp.; Enterococcus faecium (GC 4557)): 1 µg/mL (≈ 0.662 µM)
- MIC Enterococcus avium (GC 4558) (Enterococcus sp.): 8 µg/mL (≈ 5.29 µM)
- MIC Enterococcus faecalis (ATCC 29212) (Enterococcus sp.): 8 µg/mL (≈ 5.29 µM)
- MIC Enterococcus faecalis (GC 2242) (Enterococcus sp.): 8 µg/mL (≈ 5.29 µM)
- MIC Enterococcus faecalis (GC 2691) (Enterococcus sp.): 8 µg/mL (≈ 5.29 µM)
- MIC Enterococcus faecalis (GC 3059) (Enterococcus sp.): 8 µg/mL (≈ 5.29 µM)
- MIC Enterococcus faecalis (GC 4552) (Enterococcus sp.): 8 µg/mL (≈ 5.29 µM)
- MIC Enterococcus faecalis (GC 4553) (Enterococcus sp.): 8 µg/mL (≈ 5.29 µM)
- MIC Enterococcus faecalis (GC 4554) (Enterococcus sp.): 16 µg/mL (≈ 10.6 µM)
- MIC Enterococcus faecalis (GC 6189) (Enterococcus sp.): 8 µg/mL (≈ 5.29 µM)
- MIC Enterococcus faecium (GC 2243) (Enterococcus sp.): 4 µg/mL (≈ 2.65 µM)
- MIC Enterococcus faecium (GC 4556) (Enterococcus sp.): 8 µg/mL (≈ 5.29 µM)
- MIC Enterococcus faecium (GC 4557) (Enterococcus sp.): 1 µg/mL (≈ 0.662 µM)
- MIC Enterococcus faecalis (GC 2242) (Enterococcus sp.; strain GC 2242): 8 µg/mL (≈ 5.29 µM)
- MIC Enterococcus faecalis (GC 2691) (Enterococcus sp.; strain GC 2691): 8 µg/mL (≈ 5.29 µM)
- MIC Enterococcus faecalis (GC 3059) (Enterococcus sp.; strain GC 3059): 8 µg/mL (≈ 5.29 µM)
- MIC Coagulase Negative Staphylococcus (GC 4547) (Staphylococcus sp.): 4 µg/mL (≈ 2.65 µM)
- MIC Coagulase Negative Staphylococcus (GC 4548) (Staphylococcus sp.): 4 µg/mL (≈ 2.65 µM)
- MIC Coagulase Negative Staphylococcus (GC 4549) (Staphylococcus sp.): 4 µg/mL (≈ 2.65 µM)
- MIC Coagulase Negative Staphylococcus (GC 4551) (Staphylococcus sp.): 4 µg/mL (≈ 2.65 µM)
- MIC Coagulase Negative Staphylococcus (GC 6257) (Staphylococcus sp.): 2 µg/mL (≈ 1.32 µM)
- MIC Staphylococcus aureus-SMITH (GC 4543) (Staphylococcus sp.): 4 µg/mL (≈ 2.65 µM)
- MIC Staphylococcus aureus (ATCC 29213) (Staphylococcus sp.; strain ATCC 29213): 8 µg/mL (≈ 5.29 µM)
- MIC Staphylococcus aureus (GC 1131) (Staphylococcus sp.; strain GC 1131): 8 µg/mL (≈ 5.29 µM)
- MIC Staphylococcus aureus (GC 3051) (Staphylococcus sp.; strain GC 3051): 8 µg/mL (≈ 5.29 µM)
- MIC Staphylococcus aureus (GC 3053) (Staphylococcus sp.; strain GC 3053): 8 µg/mL (≈ 5.29 µM)
- MIC Staphylococcus aureus (GC 4541) (Staphylococcus sp.; strain GC 4541): 4 µg/mL (≈ 2.65 µM)
- MIC Staphylococcus aureus (GC 4542) (Staphylococcus sp.; strain GC 4542): 8 µg/mL (≈ 5.29 µM)
- MIC Staphylococcus aureus-SMITH (GC 4543) (Staphylococcus sp.; strain GC 4543): 4 µg/mL (≈ 2.65 µM)
- MIC Staphylococcus aureus (GC 4544) (Staphylococcus sp.; strain GC 4544): 8 µg/mL (≈ 5.29 µM)
- MIC Staphylococcus aureus (GC 4545) (Staphylococcus sp.; strain GC 4545): 8 µg/mL (≈ 5.29 µM)
- MIC Coagulase Negative Staphylococcus (GC 4547) (Staphylococcus sp.; strain GC 4547): 4 µg/mL (≈ 2.65 µM)
- MIC Coagulase Negative Staphylococcus (GC 4548) (Staphylococcus sp.; strain GC 4548): 4 µg/mL (≈ 2.65 µM)
- MIC Coagulase Negative Staphylococcus (GC 4549) (Staphylococcus sp.; strain GC 4549): 4 µg/mL (≈ 2.65 µM)
- MIC Coagulase Negative Staphylococcus (GC 4551) (Staphylococcus sp.; strain GC 4551): 4 µg/mL (≈ 2.65 µM)
- MIC Coagulase Negative Staphylococcus (GC 6257) (Staphylococcus sp.; strain GC 6257): 2 µg/mL (≈ 1.32 µM)
SMILES: CCCCCCN=C1NCC(C(O)C2NC(=O)C(C(O)C3CNC(=N)N3)NC(=O)C(Cc3ccc(OC4OC(CO)C(OC5OC6COC7(OC6C(O)C5O)C5CC6CC(C5)CC7C6)C(O)C4O)cc3)NC(=O)C(C(C)c3ccccc3)NC(=O)CNC(=O)C(CO)NC2=O)N1C1OC(CO)C(O)C(O)C1O (centres unmarked) [Example 84]
- MIC Staphylococcus haemolyticus (GC 4546) (Staphylococcus sp.): 4 µg/mL (≈ 2.65 µM)
- MIC Staphylococcus haemolyticus (GC 4546) (Staphylococcus sp.; strain GC 4546): 4 µg/mL (≈ 2.65 µM)
